Measurements taken from patent US20230233569A1 (Revolution Medicines, Inc., priority 2020, published 2023).

Columns and labels:
Assay in all cases: Ras-Raf disruption / FRET / MOA assay (BRAF RBD)
Type in all cases: biochemical
[1] = biological target: KRAS G12C (Homo sapiens, UniProt P01116+P62937, G12C); conditions: Ras-Raf disruption, with Cyclophilin A; read-out: KRAS G12C FRET data IC50
Method in brief: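 TR-FRET read-out after 1.5 h with anti-His Eu-W1024 (10 nM) and anti-GST APC (50 nM), following 3 h at 25 °C of compound (top 30 μM, 3-fold, 10 points) with 25 μM Cyclophilin A, 12.5 nM GMPPNP-loaded K-Ras G12C and 50 nM BRAF RBD; IC50 reported.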

[2] = biological target: NRAS G12C (Homo sapiens, UniProt P01111+P62937, G12C); conditions: NRAS G12C; read-out: NRAS G12C FRET data IC50
Method in brief: (§1)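 Compound-induced Ras–Cyclophilin A ternary complex disrupting BRAF RBD binding, read as IC50 from reduced TR-FRET ratio relative to DMSO. Final: Ras-GMPPNP 12.5 nM, BRAF RBD 50 nM, Cyclophilin A 25 μM, top compound 30 μM (3-fold, 10 points); 3 h at 25 °C, then 1.5 h with detection antibodies.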

[3] = biological target: KRAS G12V (Homo sapiens, UniProt P01116+P62937, G12V); conditions: Ras-Raf disruption, with Cyclophilin A; read-out: KRAS G12V FRET data IC50
Method in brief: as §1

[4] = biological target: KRAS WT (Homo sapiens, UniProt P01116+P62937); conditions: Ras-Raf disruption, with Cyclophilin A; read-out: KRAS WT FRET data IC50
Method in brief: as §1

[5] = biological target: KRAS G12D (Homo sapiens, UniProt P01116+P62937, G12D); conditions: Ras-Raf disruption, with Cyclophilin A; read-out: KRAS G12D FRET data IC50
Method in brief: as §1

[6] = biological target: KRAS G13C (Homo sapiens, UniProt P01116+P62937, G13C); conditions: Ras-Raf disruption, with Cyclophilin A; read-out: KRAS G13C FRET data IC50
Method in brief: as §1

[7] = biological target: KRAS G12S (Homo sapiens, UniProt P01116+P62937, G12S); conditions: Ras-Raf disruption, with Cyclophilin A; read-out: KRAS G12S FRET data IC50
Method in brief: as §1

[8] = biological target: KRAS G13D (Homo sapiens, UniProt P01116+P62937, G13D); conditions: Ras-Raf disruption, with Cyclophilin A; read-out: KRAS G13D FRET data IC50
Method in brief: as §1

Sequence of KRAS G12C (P01116 1-169 isoform P01116-2 G12C limits assumed): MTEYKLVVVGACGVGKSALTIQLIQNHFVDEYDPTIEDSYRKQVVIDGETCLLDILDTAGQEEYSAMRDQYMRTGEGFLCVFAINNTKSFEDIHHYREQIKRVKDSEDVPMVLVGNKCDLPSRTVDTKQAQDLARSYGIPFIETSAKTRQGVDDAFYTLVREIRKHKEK
Sequence of KRAS G12C (P62937 whole entry): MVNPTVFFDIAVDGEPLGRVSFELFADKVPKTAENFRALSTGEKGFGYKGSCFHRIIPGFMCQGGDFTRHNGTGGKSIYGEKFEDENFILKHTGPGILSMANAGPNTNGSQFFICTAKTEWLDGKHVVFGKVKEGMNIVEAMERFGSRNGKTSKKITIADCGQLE
Sequence of KRAS G13D (P01116 1-169 isoform P01116-2 G13D limits assumed): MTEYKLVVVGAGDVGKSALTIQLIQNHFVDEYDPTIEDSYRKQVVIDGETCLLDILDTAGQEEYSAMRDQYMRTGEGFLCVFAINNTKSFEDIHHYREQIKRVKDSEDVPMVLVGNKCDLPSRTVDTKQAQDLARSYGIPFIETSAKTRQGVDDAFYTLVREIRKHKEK
Sequence of KRAS G13D (P62937 whole entry): as the sequence (P62937 whole entry) above
Sequence of KRAS WT (P01116 1-169 isoform P01116-2 limits assumed): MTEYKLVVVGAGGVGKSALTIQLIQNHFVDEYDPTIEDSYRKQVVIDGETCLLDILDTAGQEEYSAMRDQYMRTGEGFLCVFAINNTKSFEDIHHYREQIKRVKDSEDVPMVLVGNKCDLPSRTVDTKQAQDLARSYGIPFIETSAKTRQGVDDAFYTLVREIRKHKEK
Sequence of KRAS WT (P62937 whole entry): as the sequence (P62937 whole entry) above
Sequence of KRAS G12D (P01116 1-169 isoform P01116-2 G12D limits assumed): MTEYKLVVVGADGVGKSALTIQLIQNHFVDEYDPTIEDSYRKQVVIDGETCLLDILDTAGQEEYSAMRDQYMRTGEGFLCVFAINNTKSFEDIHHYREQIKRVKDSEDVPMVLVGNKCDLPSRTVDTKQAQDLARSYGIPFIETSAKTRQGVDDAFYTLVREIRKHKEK
Sequence of KRAS G12D (P62937 whole entry): as the sequence (P62937 whole entry) above
Sequence of KRAS G13C (P01116 1-169 isoform P01116-2 G13C limits assumed): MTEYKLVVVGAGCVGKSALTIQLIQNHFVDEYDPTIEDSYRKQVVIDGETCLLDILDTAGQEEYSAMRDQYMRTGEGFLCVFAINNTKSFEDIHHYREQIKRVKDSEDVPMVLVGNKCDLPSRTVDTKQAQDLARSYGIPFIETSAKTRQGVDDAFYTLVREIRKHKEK
Sequence of KRAS G13C (P62937 whole entry): as the sequence (P62937 whole entry) above
Sequence of KRAS G12S (P01116 1-169 isoform P01116-2 G12S limits assumed): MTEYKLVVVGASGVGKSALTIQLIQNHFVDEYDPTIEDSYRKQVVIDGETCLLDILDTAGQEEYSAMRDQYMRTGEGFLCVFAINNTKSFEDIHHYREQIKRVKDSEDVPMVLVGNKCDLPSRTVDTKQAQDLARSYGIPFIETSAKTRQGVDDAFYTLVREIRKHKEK
Sequence of KRAS G12S (P62937 whole entry): as the sequence (P62937 whole entry) above
Sequence of NRAS G12C (P01111 whole entry G12C): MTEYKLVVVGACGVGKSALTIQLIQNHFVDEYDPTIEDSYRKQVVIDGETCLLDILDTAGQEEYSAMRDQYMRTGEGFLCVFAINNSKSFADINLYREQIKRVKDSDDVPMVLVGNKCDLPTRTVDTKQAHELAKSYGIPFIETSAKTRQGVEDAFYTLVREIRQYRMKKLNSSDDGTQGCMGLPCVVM
Sequence of NRAS G12C (P62937 whole entry): as the sequence (P62937 whole entry) above
Sequence of KRAS G12V (P01116 1-169 isoform P01116-2 G12V limits assumed): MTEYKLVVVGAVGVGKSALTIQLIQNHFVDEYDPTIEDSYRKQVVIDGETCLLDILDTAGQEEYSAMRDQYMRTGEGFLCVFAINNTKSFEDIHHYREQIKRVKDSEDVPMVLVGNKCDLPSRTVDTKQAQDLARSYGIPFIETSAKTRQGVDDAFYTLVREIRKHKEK
Sequence of KRAS G12V (P62937 whole entry): as the sequence (P62937 whole entry) above

Row | SMILES | IC50 [1] | IC50 [2] | IC50 [3] | IC50 [4] | IC50 [5] | IC50 [6] | IC50 [7] | IC50 [8]
1 | CCn1c(-c2cccnc2[C@H](C)OC)c2c3cc(ccc31)-c1csc(n1)C[C@H](NC(=O)[C@H](C(C)C)N(C)C(=O)N1CCN(C(=O)[C@H]3CN3)CC1)C(=O)N1CCC[C@H](N1)C(=O)OCC(C)(C)C2 [Example 169] | 10 to 100 nM | 10 to 100 nM | 100 to 1000 nM | 10 to 100 nM | 100 to 1000 nM | 10 to 100 nM | 10 to 100 nM | 100 to 1000 nM
2 | CCn1c(-c2cccnc2[C@H](C)OC)c2c3cc(ccc31)-c1csc(n1)C[C@H](NC(=O)[C@H](C(C)C)N(C)C(=O)N1CCN(C(=O)[C@@H]3CN3)CC1)C(=O)N1CCC[C@H](N1)C(=O)OCC(C)(C)C2 [Example 168] | 10 to 100 nM | 10 to 100 nM | 100 to 1000 nM | 10 to 100 nM | 100 to 1000 nM | 100 to 1000 nM | 10 to 100 nM | 100 to 1000 nM
3 | CCn1c(-c2cccnc2[C@H](C)OC)c2c3cc(ccc31)-c1cccc(c1)C[C@H](NC(=O)[C@H](C(C)C)N(C)C(=O)[C@H]1CC[C@H](N=C=NCc3ccccc3OC)C1)C(=O)N1CCC[C@H](N1)C(=O)OCC(C)(C)C2 [Example 76] | 100 to 1000 nM | 100 to 1000 nM | > 10000 nM | 1000 to 10000 nM | 1000 to 10000 nM | 100 to 1000 nM | > 10000 nM | > 10000 nM
4 | CCn1c(-c2cccnc2[C@H](C)OC)c2c3cc(ccc31)-c1cc(O)cc(c1)C[C@H](NC(=O)[C@H](C1CCCC1)N1CC[C@]3(CCN(C(=O)[C@H]4CN4)C3)C1=O)C(=O)N1CCC[C@H](N1)C(=O)OCC(C)(C)C2 [Example 175, (2S)-2-((S)-7-((R)-aziridine-2-carbonyl)-1-oxo-2,7-diazaspiro[4.4]nonan-2-yl)-2-cyclopentyl-N-((6^3S,4S)-1^1-ethyl-2^5-hydroxy-1^2-(2-((S)-1-methoxyethyl)pyridin-3-yl)-10,10-dimethyl-5,7-dioxo-6^1,6^2,6^3,6^4,6^5,6^6-hexahydro-1^1H-8-oxa-1(5,3)-indola-6(1,3)-pyridazina-2(1,3)-benzenacycloundecaphane-4-yl)acetamide] | < 10 nM | < 10 nM | 10 to 100 nM | 10 to 100 nM | 10 to 100 nM | 10 to 100 nM | 10 to 100 nM | 10 to 100 nM
5 | CCn1c(-c2cccnc2[C@H](C)OC)c2c3cc(ccc31)-c1cc(O)cc(c1)C[C@H](NC(=O)[C@H](C(C)C)N1CC[C@@]3(CCN(C(=O)[C@@H]4N[C@@H]4C4CC4)C3)C1=O)C(=O)N1CCC[C@H](N1)C(=O)OCC(C)(C)C2 [Example 128] | 10 to 100 nM | 10 to 100 nM | 100 to 1000 nM | 100 to 1000 nM | 100 to 1000 nM | 10 to 100 nM | 100 to 1000 nM | 100 to 1000 nM
6 | CCn1c(-c2cccnc2[C@H](C)OC)c2c3cc(ccc31)-c1cc(O)cc(c1)C[C@H](NC(=O)[C@H](C(C)C)N(C)C(=O)C1CCN(C(=O)[C@H]3CN3)CC1)C(=O)N1CCC[C@H](N1)C(=O)OCC(C)(C)C2 [Example 86] | 10 to 100 nM | < 10 nM | 100 to 1000 nM | 10 to 100 nM | 100 to 1000 nM | 10 to 100 nM | 10 to 100 nM | 10 to 100 nM
7 | CCn1c(-c2cccnc2[C@H](C)OC)c2c3cc(ccc31)-c1cc(O)cc(c1)C[C@H](NC(=O)[C@H](C(C)C)N(C)C(=O)c1ccc([C@@H]3CN3)nc1)C(=O)N1CCC[C@H](N1)C(=O)OCC(C)(C)C2 [Example 87] | 10 to 100 nM | 10 to 100 nM | 100 to 1000 nM | 100 to 1000 nM | 1000 to 10000 nM | 10 to 100 nM | 100 to 1000 nM | 100 to 1000 nM
8 | CCn1c(-c2cccnc2[C@H](C)OC)c2c3cc(ccc31)-c1cc(O)cc(c1)C[C@H](NC(=O)[C@H](C(C)C)N1CC[C@@]3(CCN(C(=O)[C@H]4CN4)C3)C1=O)C(=O)N1CCC[C@H](N1)C(=O)OCC(C)(C)C2 [Example 149] | < 10 nM | < 10 nM | 10 to 100 nM | 10 to 100 nM | 100 to 1000 nM | 10 to 100 nM | 10 to 100 nM | 10 to 100 nM
